Test results published in ChEMBL document CHEMBL3244027, “Syntheses, analgetic activity, and physical dependence capacity of 5-phenyl-6,7-benzomorphan derivatives” (J Med Chem, 1979).
Activity calls are given as the source filed them. The rule behind the calls is not given here.

How the values were obtained:
Mus musculus [1] = assay: Analgetic activity against CF-1 mouse assessed as increase in reaction time at 60 mg/kg, po by heat stimulus induced tail flick response assay; assay type: functional, organism-based; set-up: dose 60 mg/kg
Mus musculus [2] = assay: Analgetic activity in sc dosed CF1S mouse assessed as writhing by phenylquinone writhing test; assay type: functional; details: Mus musculus, CF1S, sc; read-out: ED50
Mus musculus [3] = species on record: Mus musculus; assay: Analgetic activity in nalorphine challenged mouse assessed as frequency pretreated for 2 day by mouse jumping test; assay type: functional, organism-based
Mus musculus [4] = assay: Analgetic activity against CF-1 mouse assessed as increase in reaction time at 1.2 mg/kg, sc by heat stimulus induced tail flick response assay; assay type: functional, organism-based; set-up: dose 1.2 mg/kg
Mus musculus [5] = assay: Analgetic activity against CF-1 mouse assessed as increase in reaction time at 140 mg/kg, sc by heat stimulus induced tail flick response assay; assay type: functional, organism-based; set-up: dose 140 mg/kg
Mus musculus [6] = assay: Analgetic activity against CF-1 mouse assessed as increase in reaction time at 2.5 mg/kg, sc by heat stimulus induced tail flick response assay; assay type: functional, organism-based; set-up: dose 2.5 mg/kg
Mus musculus [7] = assay: Analgetic activity against CF-1 mouse assessed as increase in reaction time at 20 mg/kg, po by heat stimulus induced tail flick response assay; assay type: functional, organism-based; set-up: dose 20 mg/kg
Mus musculus [8] = assay: Analgetic activity against CF-1 mouse assessed as increase in reaction time at 80 mg/kg, po by heat stimulus induced tail flick response assay; assay type: functional, organism-based; set-up: dose 80 mg/kg
Mus musculus [9] = assay: Analgetic activity against CF-1 mouse assessed as increase in reaction time at 320 mg/kg, po by heat stimulus induced tail flick response assay; assay type: functional, organism-based; set-up: dose 320 mg/kg
Mus musculus [10] = assay: Analgetic activity against CF-1 mouse assessed as increase in reaction time at 100 mg/kg, sc by heat stimulus induced tail flick response assay; assay type: functional, organism-based; set-up: dose 100 mg/kg
Mus musculus [11] = assay: Analgetic activity against CF-1 mouse assessed as increase in reaction time at 100 mg/kg, po by heat stimulus induced tail flick response assay; assay type: functional, organism-based; set-up: dose 100 mg/kg
Rhesus monkey = assay: Analgetic activity in naloxone challenged monkey assessed as frequency pretreated for 2 day by mouse jumping test; assay type: functional, organism-based; details: Macaca mulatta
Mus musculus [12] = assay: Analgetic activity against CF-1 mouse assessed as increase in reaction time at 16 mg/kg, po by heat stimulus induced tail flick response assay; assay type: functional, organism-based; set-up: dose 16 mg/kg
Mus musculus [13] = assay: Analgetic activity against CF-1 mouse assessed as increase in reaction time at 4 mg/kg, sc by heat stimulus induced tail flick response assay; assay type: functional, organism-based; set-up: dose 4 mg/kg
Mus musculus [14] = assay: Analgetic activity in po dosed CF1S mouse assessed as writhing by phenylquinone writhing test; assay type: functional; details: Mus musculus, CF1S, po; read-out: ED50
Mus musculus [15] = species on record: Mus musculus; assay: Analgetic activity in naloxone challenged mouse assessed as frequency pretreated for 2 day by mouse jumping test; assay type: functional, organism-based
Mus musculus [16] = assay: Analgetic activity against CF-1 mouse assessed as increase in reaction time at 40 mg/kg, po by heat stimulus induced tail flick response assay; assay type: functional, organism-based; set-up: dose 40 mg/kg
Mus musculus [17] = assay: Analgetic activity against CF-1 mouse assessed as increase in reaction time at 20 mg/kg, sc by heat stimulus induced tail flick response assay; assay type: functional, organism-based; set-up: dose 20 mg/kg
Mus musculus [18] = assay: Analgetic activity against CF-1 mouse assessed as increase in reaction time at 40 mg/kg, sc by heat stimulus induced tail flick response assay; assay type: functional, organism-based; set-up: dose 40 mg/kg
Mus musculus [19] = assay: Analgetic activity against CF-1 mouse assessed as increase in reaction time at 50 mg/kg, sc by heat stimulus induced tail flick response assay; assay type: functional, organism-based; set-up: dose 50 mg/kg
Mus musculus [20] = assay: Analgetic activity against CF-1 mouse assessed as increase in reaction time at 5 mg/kg, sc by heat stimulus induced tail flick response assay; assay type: functional, organism-based; set-up: dose 5 mg/kg
Mus musculus [21] = assay: Analgetic activity against CF-1 mouse assessed as increase in reaction time at 10 mg/kg, sc by heat stimulus induced tail flick response assay; assay type: functional, organism-based; set-up: dose 10 mg/kg
Mus musculus [22] = assay: Analgetic activity against CF-1 mouse assessed as increase in reaction time at 2 mg/kg, sc by heat stimulus induced tail flick response assay; assay type: functional, organism-based; set-up: dose 2 mg/kg
Mus musculus [23] = assay: Analgetic activity against CF-1 mouse assessed as increase in reaction time at 1.2 mg/kg, po by heat stimulus induced tail flick response assay; assay type: functional, organism-based; set-up: dose 1.2 mg/kg
Mus musculus [24] = assay: Toxicity in sc dosed CF1S mouse; assay type: organism-based; details: in vivo

## O=C(Oc1ccc2c(c1)C1(c3ccccc3)CCN(C(=O)C3CC3)C(C2)C1)C1CC1 (racemic)
Mus musculus [1]
  Activity: inactive
Mus musculus [2]
  ED50: > 100 mg/kg

## CC1C2Cc3ccc(OC(=O)c4cccc([N+](=O)[O-])c4)cc3C1(c1ccccc1)CCN2C (stereo not given)
Mus musculus [3]
  Activity: Active
Mus musculus [4]
  Activity: Active

## CCN1CCC2(c3ccccc3)c3cc(O)ccc3CC1C2C (stereo not given)
Mus musculus [5]
  Activity: Active

## CC1C2Cc3ccc(OC(=O)C4CCC4)cc3C1(c1ccccc1)CCN2C (stereo not given)
Mus musculus [6]
  Activity: Active
Mus musculus [7]
  Activity: Active

## CC1C2Cc3ccc(OC(=O)c4cccc(Cl)c4)cc3C1(c1ccccc1)CCN2C (stereo not given)
Mus musculus [4]
  Activity: Active

## COc1cc(CC2C=C(c3ccccc3)CCN2C)cc(OC)c1OC (stereo not given)
Mus musculus [8]
  Activity: Active

## CC1C2Cc3ccc(O)cc3C1(c1ccccc1)CCN2CCC(C#N)(c1ccccc1)c1ccccc1 (stereo in doubt; 189)
Mus musculus [3]
  Activity: inactive
Mus musculus [9]
  Activity: inactive

## CC1C2Cc3ccc(OC(=O)c4ccccc4F)cc3C1(c1ccccc1)CCN2C (stereo not given)
Mus musculus [3]
  Activity: Active
Mus musculus [2]
  ED50: 0.5 mg/kg

## COc1ccc2c(c1)C1(c3ccccc3)CCN(C)C(C2)C1 (racemic)
Mus musculus [10]
  Activity: inactive

## CC(=O)Oc1ccc2c(c1)C1(c3ccc(Cl)cc3)CCN(C#N)C(C2)C1 (racemic)
Mus musculus [2]
  ED50: > 100 mg/kg
Mus musculus [11]
  Activity: inactive

## Oc1ccc2c(c1)C1(c3ccccc3)CCN(CC3CCC3)C(C2)C1 (racemic)
Rhesus monkey
  Activity: inactive

## CC1C2Cc3ccc(OC(=O)c4ccco4)cc3C1(c1ccccc1)CCN2C(=O)c1ccco1 (stereo not given)
Mus musculus [1]
  Activity: inactive

## CN1CC[C@]23c4c5ccc(O)c4O[C@H]2[C@@H](O)C=C[C@H]3[C@H]1C5 [MORPHINE]
Mus musculus [12]
  Activity: Active
Mus musculus [13]
  Activity: Active
Mus musculus [14]
  ED50: 8.9 mg/kg
Mus musculus [15]
  Activity: Active

## CN1CCC2(c3ccccc3)CC1Cc1ccccc12 (racemic)
Mus musculus [16]
  Activity: Active
Mus musculus [17]
  Activity: Active

## Oc1ccc2c(c1)C1(c3ccccc3)CCN(CC3CC3)C(C2)C1 (racemic)
Rhesus monkey
  Activity: inactive

## COc1ccc(CC2C=C(c3ccc(Cl)cc3)CCN2C)cc1 (stereo not given)
Mus musculus [16]
  Activity: Active
Mus musculus [15]
  Activity: inactive

## CC1C2Cc3ccccc3C1(c1ccccc1)CCN2C (racemic)
Mus musculus [18]
  Activity: Active
Mus musculus [8]
  Activity: Active

## CN(C)C(=O)CCN1CCC2(c3ccccc3)CC1Cc1ccc(O)cc12 (racemic)
Mus musculus [19]
  Activity: inactive

## CCCCCN1CCC2(c3ccccc3)c3cc(OC(C)=O)ccc3CC1C2C (stereo not given)
Mus musculus [16]
  Activity: Active
Mus musculus [20]
  Activity: Active

## CC1C2Cc3ccc(O)cc3C1(c1ccccc1)CCN2CCc1ccccc1 (stereo not given)
Mus musculus [8]
  Activity: Active
Mus musculus [21]
  Activity: Active

## C[C@@H]1C2Cc3ccc(O)cc3C1(c1ccccc1)CCN2C (stereo not given in full)
Mus musculus [22]
  Activity: Active
Rhesus monkey
  Activity: Active

## CC1C2Cc3ccc(OC(=O)c4ccc(Br)cc4)cc3C1(c1ccccc1)CCN2C (stereo not given)
Mus musculus [23]
  Activity: Active
Mus musculus [20]
  Activity: Active

## Oc1ccc2c(c1)C1(c3ccccc3)CCN(CC3CC3)C(C2)C1 (stereo not given)
Mus musculus [24]
  Activity: Toxic

## CC1C2Cc3ccc(O)cc3C1(c1ccccc1)CCN2C (stereo not given)
Mus musculus [16]
  Activity: Active
Mus musculus [17]
  Activity: Active

## CCOC(=O)CNC(=O)Oc1ccc2c(c1)C1(c3ccccc3)CCN(C)C(C2)[C@H]1C (stereo not given in full)
Mus musculus [18]
  Activity: Active
Mus musculus [8]
  Activity: Active

## CC1C2Cc3ccc(O)cc3C1(c1ccccc1)CCN2CCc1ccccc1 (racemic)
Mus musculus [16]
  Activity: Active
Mus musculus [17]
  Activity: Active
